As for `COc1ccc(CC(=O)N[C@H]2C[C@H](C(=O)O)Nc3cc(Cl)cc(Cl)c32)cc1` (relative stereo), the melting point (commonly the temperature, or range, at which the solid turns liquid) was in the range of 245 to 247 °C.

`CCOC(=O)/C(C)=C/c1ccc(Br)cc1`: the melting point was determined as 82 °C. The same measure for `Cc1cc(-c2nc3cccnn3c2-c2ccnc(NC(=O)NCCS(C)(=O)=O)c2)ccc1F`: 204 to 205 °C; for `CC(C)N1C(=O)c2cncnc2N(C(=O)CN2CCN(C)CC2)c2ccccc21`: 133 to 135 °C; for `CCCn1nc(C(C)C)c(C(N)=O)c1Cc1ccc(-c2ccccc2-c2nnn[nH]2)cc1`: 156 to 159 °C. The same measure for `C=C1CCN([C@H](C)[C@](O)(Cn2cncn2)c2ccc(F)cc2F)CC1`: 86 to 87 °C. The compound `CCCCCCCCCCCCCC(=O)OCC1(CO)CCC(=O)O1` (stereo unspecified) yielded a melting point of 65 to 66 °C. For the compound `Cc1ccc(S(=O)(=O)N2[C@@H](c3nc(C)no3)CC[C@H]2c2ccc(F)cc2)cc1` (racemic), the melting point was 128 °C.

On to `CN1CCC(C2c3cccc4c3N(CC4)c3ccccc3N2C)CC1` (stereo unspecified), for which the melting point fell in the range of 138 to 139 °C.

`Cn1ncc(C=O)c1-c1ccoc1`: the melting point fell in the range of 70 to 71 °C. As for `CC(O)COc1ccc2c(c1)c(-c1cc3cccnc3[nH]1)cn2C` (stereo unspecified), the melting point is 198 to 199 °C. The same measure for `COC(C)(C)c1ccc(-c2cc(-c3c[nH]nc3-c3cccc(C)n3)ccc2F)nc1`: 168 to 169 °C; for `NC(=O)OC1CCN(C(=O)Cn2c(=O)sc3ccc(Cl)cc32)CC1`: 210 to 212 °C. The same measure for `COc1ccc(Br)c(/C=C/c2cc(/C=C/c3ccc4cc[nH]c4c3)[nH]n2)c1`: 103 to 109 °C; for `C[C@H](NC(=O)CC#N)C(=O)N1CCC[C@H]1C(=O)Nc1ccccc1`: 183 to 184 °C; for `CCOC(=O)C(C)OCC#Cc1cc(Cl)ccc1NS(=O)(=O)c1ccc2ncsc2c1` (stereo unspecified): 166 to 168 °C. The same measure for `CN(Cc1nc(-c2cc(C(C)(C)C)c(O)c(C(C)(C)C)c2)cn1COCC[Si](C)(C)C)c1ccc([N+](=O)[O-])cc1`: 149 to 151 °C. `CNC(=O)c1cccc(F)c1Nc1nc(Nc2ccc3c(c2)NC(=O)C(N2CCOCC2)CC3)ncc1Cl` (stereo unspecified) gave a melting point of 270 to 271 °C. For the compound `O=C(O)c1ccc(NC(=O)c2ccc3c(c2)OCCO3)cc1`, the melting point is 278 to 280 °C. The same measure for `O=C(O)[C@@H]1CN(C(=O)OCc2ccccc2)CCN1C(=O)N1c2ccccc2CCc2ccccc21`: 185 °C; for `COc1cc2cc(CO)c(CO)c(-c3cccc(Br)n3)c2cc1OC`: 107 to 108 °C. `CC(=O)Nc1ccc(OC(=O)C=CC=C(C)C=CC=C(C)C=CC2=C(C)CCCC2(C)C)cc1` had a melting point of 219 to 222 °C. For the compound `COc1ccc(-c2nc(Sc3ncccn3)[nH]c2-c2ccc(OC)cc2)cc1`, the melting point is 86 °C. The same measure for `CC(CCC(=O)C(C)(C)O)C1CCC2C3CC(O)C4CC(O)CCC4(C)C3CCC12C` (stereo unspecified): 189 to 191 °C; for `NS(=O)(=O)c1ccc(-n2nc(CC(=O)O)cc2-c2ccc(Cl)cc2)cc1`: 120 to 122 °C. In turn, `CCOC(=O)COC(CC)c1ccc(-c2ccc(Cl)cc2)cc1` (stereo unspecified) yielded a melting point of 170 to 172 °C. Consider `CN1CCN(C2=Nc3ccccc3Nc3ccsc32)CC1`, for which the melting point lay within 202 to 206 °C. In turn, `COc1ccc2c(c1)C(=O)N(C)CC(CCCl)O2` (stereo unspecified) came in with a melting point of 98 to 100 °C. The same measure for `Fc1ccc(-n2c(OCCN3CCCC3)cc3ccc(Cl)cc32)cc1`: 60 to 62 °C; for `Cn1ncnc1COc1nc2c(-c3ccccc3)nncn2c1-c1ccccc1`: 179 °C; for `CN1C(=O)N(c2ccc(Cl)cc2)S(=O)(=O)c2ccc(O)cc21`: greater than 250 °C.

For `CNC(=O)c1ccc(N2CCN(Cc3cc4c(c(C5CC5)c3)OC(C)C(=O)N4)CC2)cc1` (stereo unspecified), the melting point was 256 to 259 °C.

Consider `CCN(CC)CCN(CCN1CCCCC1)c1ccc(-c2nc3cc(Cl)c(Cl)cc3[nH]2)cc1`, for which the melting point was 160 to 163 °C. Take `Cc1nn(-c2cc(Oc3ccc(N)cc3)c(Cl)cc2F)c(=O)n1C(F)F`: the melting point lay within 133 to 135 °C. In the case of `O=Cc1cc(C(=O)c2ccccc2)ccc1[N+](=O)[O-]`, the melting point was determined as 96.7 °C. The compound `CC(=O)NC[C@H]1CN(c2ccc3c(c2)CCSCC3=O)C(=O)O1` yielded a melting point of 232 to 233 °C. Compound `COc1ccc(S(=O)(=O)N(CC(N)=O)c2ccc(C)cc2Cc2ccccc2Cl)cc1OC` had a melting point of 141 °C. For `CCCCCCCCCCNC(=O)C=Cc1cccc(N2CC(C(=O)O)CC2=O)c1` (stereo unspecified), the melting point was in the range of 151 to 152 °C.

For `Cc1nc(-n2cnn(CC3CC3(F)F)c2=O)sc1C(=O)NCc1cccnc1` (stereo unspecified), the melting point was 160 to 161 °C. The same measure for `CCNC(=S)Nc1nccs1`: 135 to 136 °C; for `Cc1nnc(N2N=C(c3ccc([N+](=O)[O-])cc3)c3cc4c(cc3CC2C)OCO4)s1` (stereo unspecified): 101 to 102 °C. The same measure for `CC1(CF)C=C(C#N)c2cc([N+](=O)[O-])ccc2O1` (stereo unspecified): 169 to 171 °C; for `Cn1cc(C2=C(c3c4n(c5ccccc35)CC(CN)CC4)C(=O)NC2=O)c2ccccc21` (stereo unspecified): 160 to 165 °C. The same measure for `CCc1n[nH]c(CC)c1CCCCCCOc1ccc([N+](=O)[O-])cc1Cl`: 130 to 132 °C; for `CC(C)Cc1nn(C)c(=O)c2cc(Cc3cccc4ccccc34)oc12`: 73 to 75 °C. Turning to `CCCCC1(C#N)C2CC3CC(C2)CC1C3` (stereo unspecified), the melting point was in the range of 48 to 50 °C. The same measure for `CCCCN(C)CCc1ccc(Nc2ncc3c(n2)-c2ccccc2[C@H](c2ccc(F)cc2)C3)cc1`: 164 to 166 °C.

`O=C(O)[C@H]1[C@H](CS)N(Cc2ccccc2)C(=O)N1Cc1ccccc1` gave a melting point of 159 to 160 °C. `CC[C@H](O)CC(=O)N[C@H]1CC[C@H](CCN2CCN(c3nccc4c3CCO4)CC2)CC1` registered a melting point of 158 °C. `COC(=O)c1cc(-c2ccc(OC)c(F)c2)nn(CC2CC2)c1=O` gave a melting point of 114 to 117 °C.

On to `CCOC1Nc2c(ccc(OC)c2O)C(=O)N2CCCC12` (stereo unspecified), for which the melting point lay within 155 to 158 °C. The same measure for `CCCCNc1nc(-c2ccccc2)co1`: 52 to 53 °C; for `COCC(=O)Nc1cccc2c1C(=O)N(C1CCC(=O)NC1=O)C2=O` (stereo unspecified): 246 to 248 °C. The same measure for `NS(=O)(=O)c1cc2cc[nH]c(=O)c2o1`: 290 to 291 °C; for `N#Cc1c(O)csc1N`: 300 °C; for `Nc1c([N+](=O)[O-])cc(O)cc1[N+](=O)[O-]`: 230 °C.

For the compound `CN1CN(c2cccc([N+](=O)[O-])c2)c2ncccc2C1=O`, the melting point was in the range of 247 to 248 °C. As for `CN1C(=O)C(C)(C)N=C(c2ccccc2Cl)c2c1ccc(N)c2Br`, the melting point was in the range of 188 to 189 °C. `C=CCC(C(=O)N1C(=O)OCC1Cc1ccccc1)c1ccc(F)cc1` (stereo unspecified) showed a melting point of 103 to 104 °C.

In turn, `c1ccc(Sc2ccc(Sc3ccccc3)cc2)cc1` had a melting point of 78 to 79 °C. `O=C1c2ccccc2C(=O)N1OCc1cn(C(c2ccccc2)(c2ccccc2)c2ccccc2)nn1` returned a melting point of 195 to 200 °C. The same measure for `COc1ccc(C(OCC2OC(n3cc(C)c(=O)[nH]c3=O)CC2O[Si](C)(C)C(C)(C)C)(c2ccccc2)c2ccc(OC)cc2)cc1` (stereo unspecified): 214 °C; for `COc1cc2c(cc1Nc1ncc(Cl)c(Nc3ccccc3S(=O)(=O)N3CCCC3)n1)CCN(CCO)CC2`: 110 °C.

With `COC(=O)C=CC1C(C(=O)OC(C#N)c2cccc(Oc3ccccc3)c2)C1(C)C` (stereo unspecified), the melting point is 98 °C. In the case of `O=C(NC1CCCCC1)C1=C(c2ccccc2)C(c2ccccc2)OC1=O` (stereo unspecified), the melting point fell in the range of 151 to 153 °C. The same measure for `CCCCCCCCCCCCCCCCCCOc1ccc(C(=O)C=Cc2ccc(SC)cc2)cc1`: 104 °C; for `Cc1c(-c2ccncc2)[nH]c2c1C(=O)CC(C)(C)C2`: 241 to 242 °C; for `CC(C)(C)OC(=O)N[C@@H]1C(=O)N2C(C(=O)OC(c3ccccc3)c3ccccc3)=C(/C=C3\CCN(CC4CC4)C3=O)CS[C@H]12`: 175 to 180 °C. The same measure for `CC1CC(C)(CO)CN1c1ccc(C#N)c2ccccc12` (stereo unspecified): 100 to 101 °C; for `COC(=O)c1sccc1NC(C)=O`: 93 to 95 °C. The compound `CN1CCN(C2=Nc3ccccc3Oc3sc(Br)cc32)CC1` registered a melting point of 150 to 151 °C. In turn, `CCOC(=O)c1cc2ccccc2nn1` came in with a melting point of 158 to 160 °C. The same measure for `CCCCC1(C2CCCC2)Cc2cc(OCCCC(=O)O)c(Cl)c(Cl)c2C1=O` (stereo unspecified): 139 to 140 °C; for `O=S(CC1CO1)c1ncc(Cl)cn1` (stereo unspecified): 92 °C. Compound `Cc1ccc(-c2cccnc2)nc1` returned a melting point of 40 to 41 °C. In the case of `COc1cc(NC(=O)Nc2ccccc2)ccn1`, the melting point was 127 to 129 °C.

Regarding `CN(C)S(=O)(=O)c1ccc2c3c(cccc13)C(NCCCn1ccnc1)=N2`, the melting point was 199 to 201 °C. The same measure for `CC(c1n[nH]c(=O)[nH]1)N1CCC[C@H](O[C@H](C)c2cc(C(F)(F)F)cc(C(F)(F)F)c2)[C@@H]1c1ccccc1` (stereo partly specified): 257 to 258 °C. The same measure for `CC1(C)C(=O)NCCN1C(=O)C(N)Cc1ccccc1` (stereo unspecified): 70 to 73 °C. `CCCCCCc1ccc(C(=O)Oc2ccc(C(=O)O)cc2)cc1` came in with a melting point of 162 °C. `CCc1cn(C2CC(O)C(CNC(=O)C(C)S(=O)c3ccc(Cl)cc3Cl)O2)c(=O)[nH]c1=O` (mixture of isomers): the melting point fell in the range of 208 to 209 °C. Regarding `N#Cc1cc(Cc2ccccc2)cc(-c2cccc([N+](=O)[O-])c2)c1O`, the melting point lay in the range of 148 to 149 °C. The same measure for `CCOC(=O)c1cn2c(cc(Cl)c3ccc(Cl)cc32)n1`: 229 to 230 °C; for `Cc1oc(-c2ccc(Cl)cc2)nc1COc1cccc(CN(O)C(N)=O)c1`: 125 to 127 °C.

The compound `CC(=O)c1ccc2c(c1)CCc1ccc(C(=O)O)cc1S2(=O)=O` displayed a melting point of 219 to 221 °C. As to `CC1(C)CN(C2CCN(c3cc(Cl)cc(Cl)c3)C2=O)C1=O` (stereo unspecified), the melting point was 185 to 186 °C.

Source of the values: a melting point compilation (Tetko et al.; mined from patent text by program, amines drawn as free bases though some values may be those of a salt).
